# Data: publication PMC2881055, “Endocytic pathways mediating oligomeric Aβ42 neurotoxicity” (Molecular Neurodegeneration, 2010)
# pIC50: −log10 of the molar value.
# Columns and labels:
# N2A cells [1] = assay: oAβ42-induced neurotoxicity in N2A cells, with inhibitor or siRNA (CellTiter-Glo ATP assay); assay type: cell-based, mouse; design: effect on Aβ42 toxicity: dose or concentration left out as unconfirmed
# Method: Small interfering RNA (siRNA) for the clathrin heavy chain (CLTC, SMARTpool L-004001-00-0005) and control Non-Targeting siRNA were purchased from Dharmacon. Cells were transfected at 20 pmol siRNA in 24-well culture plates using LipofectAmine 2000 according to vendor's recommended transfection protocol. A second transfection was done the next day. These transfected cells were then split and seeded on to 96-well plate in MEM with 10% FBS. 48 hours post-transfection, these cells were treated with oAβ42 for 24 hours.
# N2A cells [2] = system: N2A cells; design: lethality to N2A cells: dose or concentration left out as unconfirmed; details: cited from earlier work
# N2A cells [3] = system: N2A cells
# Method: Mouse neuroblastoma, N2A cells (ATCC) were maintained in MEM (ATCC) supplemented with 10% FBS, 2 mM L-glutamine, 100 U/ml of penicillin, 100 ug/ml of streptomycin, as previously described. 5000 cells per well were plated on to 96-well plates 24 hours prior to treatment to allow attachment. Cells were then treated […] oAβ42 in DMEM medium without phenol red and with 1% N2 supplement (Invitrogen). At the end of the experiment (24 hours post-treatment), cell viability was assessed by relative cellular ATP levels using CellTiter-Glo assay kit (Promega) according to the manufacture's instruction. Statistical significance was established at p < 0.01 by One-way ANOVA with Tukey test for comparison in different groups.
# N2A cells were treated with pharmacological inhibitors that block specific steps during endocytosis. […] Chlorpromazine (2 mM), genistein ([…]), PP2 (1 mM) were added to cell cultures at indicated concentrations 1 hr before oAβ42 treatment in DMEM with 1% N2 supplement. The final concentration of vehicle (DMSO) was 0.05% in all cultures.
# neuroblastoma cell line = system: neuroblastoma cell line; design: method as in PMID 3796890; details: cited from earlier work
# SH-SY5Y cells = details: cited from earlier work
# Text: (§1) Dynamin mediates both clathrin-dependent and -independent endocytosis (for review, [76]). We first used two pharmacological inhibitors to block the dynamin-dependent endocytic pathway, genistein (a general tyrosine kinase inhibitor) and PP2 (a Src family tyrosine kinase inhibitor). […] The result was consistent with previous reports that this agent protected from Aβ induced toxicity in cultured hippocampal neurons and SH-SY5Y cells.
# [4] = system: cultured hippocampal neurons; details: cited from earlier work
# Text: as §1
# N2A cells [5] = details: co-cultures of primary neurons and glia, and Neuro-2A cells (N2A); cited from earlier work
# Text: Here we focus mainly on endocytic pathways in relation to oAβ42 toxicity in N2A cells.
compound,measurement,setting,value
CC(C)(C)n1nc(-c2ccc(Cl)cc2)c2c(N)ncnc21 [PP2],effect on Aβ42 toxicity,"N2A cells [1]; PP2 pre-treatment 1 hr before oAβ42, 24 hours, data not shown",decreased Aβ42 toxicity though to a lesser extent than genistein
same,lethality to N2A cells,N2A cells [2],lethal
CN(C)CCCN1c2ccccc2Sc2ccc(Cl)cc21 [chlorpromazine],toxicity to N2A cells,N2A cells [3],toxic
same,cell viability retained,"N2A cells [3]; N2A cells, 2 mM chlorpromazine, ATP-based CellTiter-Glo",90%
same,effect on oAβ42 neurotoxicity,"N2A cells [1]; 2 mM chlorpromazine added 1 hr before oAβ42, 24 hours, data not shown",failed to block
same,effect on cells at higher concentration,neuroblastoma cell line; 10^-4-10^-3 M,killed cells
same,effect on Ca++-mediated toxicity at lower concentration,neuroblastoma cell line; 10^-6-10^-5 M,inhibited Ca^++-mediated toxicity
O=c1c(-c2ccc(O)cc2)coc2cc(O)cc(O)c12 [genistein],effect on oAβ42-induced toxicity,"N2A cells [1]; pre-treated with 10 mM genistein for 1 hour, 10 μM oAβ42 for 24 hours, p < 0.01",significantly inhibited
same,protection from Aβ induced toxicity,SH-SY5Y cells,protected
same,protection from Aβ induced toxicity,[4],protected
same,pIC50,"N2A cells [2]; read-out: IC50, inhibition of growth of N2A cells, dose-dependent",4.74
"oAβ42: Oligomer preparation of recombinant Aβ42 (rPeptide), formed in DMSO/Ham's F12 at 4°C for 24 hours",neurotoxicity of the oAβ42 preparation,N2A cells [5],causes neurotoxicity
